Source: US11623932B2, “Protein degraders and uses thereof” (Kymera Therapeutics, Inc., priority 2017, dated 2023)

Columns and labels:
[1] = molecular target: BRD4 (Homo sapiens (Human), UniProt O60885); test: BRD4 degradation in NAMALWA cells, Western Blot; format: cell-based; conditions: 2 h
[2] = molecular target: Untagged CRBN-DDB1 complex (Homo sapiens (Human), UniProt Q96SW2); test: Fluorescence polarization (FP) assay, displacement of Cy5-labeled thalidomide; format: binding; conditions: Cy5-labeled thalidomide 20 nM, 10 min at room temperature
Description: The final solution contained 50 mM HEPES, 200 mM NaCl and 2 mM DTT, pH 7.5. The mixtures were incubated at room temperature for 10 min. The FP signals were recorded on an EnVision plate reader (Perkin Elmer) using the following settings: Excitation Light (%): 100; Measurement Height: 12; G-Factor: 1; Detector Gain 1: 500; Detector Gain 2: 500; Flash Number: 100. Dose-dependent loss of FP signals was fitted by four-parameter Logistic Function using GraphPad Prism 7.0 and the IC50 values were reported for each compound.
The compound numbers correspond to the compound numbers in the examples.

Chain of Untagged CRBN-DDB1 complex (Q96SW2 whole entry): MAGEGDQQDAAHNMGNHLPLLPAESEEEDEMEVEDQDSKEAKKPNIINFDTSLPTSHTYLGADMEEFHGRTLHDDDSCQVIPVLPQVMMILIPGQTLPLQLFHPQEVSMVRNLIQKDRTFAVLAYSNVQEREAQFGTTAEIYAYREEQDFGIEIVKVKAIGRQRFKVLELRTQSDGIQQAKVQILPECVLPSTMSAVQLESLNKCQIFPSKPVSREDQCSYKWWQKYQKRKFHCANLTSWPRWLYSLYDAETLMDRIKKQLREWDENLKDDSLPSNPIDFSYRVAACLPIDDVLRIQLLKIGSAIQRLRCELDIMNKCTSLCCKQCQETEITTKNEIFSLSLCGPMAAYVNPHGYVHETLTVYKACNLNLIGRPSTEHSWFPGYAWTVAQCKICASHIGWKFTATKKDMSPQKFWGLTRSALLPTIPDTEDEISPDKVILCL
Chain of Untagged CRBN-DDB1 complex (Q16531 whole entry partner): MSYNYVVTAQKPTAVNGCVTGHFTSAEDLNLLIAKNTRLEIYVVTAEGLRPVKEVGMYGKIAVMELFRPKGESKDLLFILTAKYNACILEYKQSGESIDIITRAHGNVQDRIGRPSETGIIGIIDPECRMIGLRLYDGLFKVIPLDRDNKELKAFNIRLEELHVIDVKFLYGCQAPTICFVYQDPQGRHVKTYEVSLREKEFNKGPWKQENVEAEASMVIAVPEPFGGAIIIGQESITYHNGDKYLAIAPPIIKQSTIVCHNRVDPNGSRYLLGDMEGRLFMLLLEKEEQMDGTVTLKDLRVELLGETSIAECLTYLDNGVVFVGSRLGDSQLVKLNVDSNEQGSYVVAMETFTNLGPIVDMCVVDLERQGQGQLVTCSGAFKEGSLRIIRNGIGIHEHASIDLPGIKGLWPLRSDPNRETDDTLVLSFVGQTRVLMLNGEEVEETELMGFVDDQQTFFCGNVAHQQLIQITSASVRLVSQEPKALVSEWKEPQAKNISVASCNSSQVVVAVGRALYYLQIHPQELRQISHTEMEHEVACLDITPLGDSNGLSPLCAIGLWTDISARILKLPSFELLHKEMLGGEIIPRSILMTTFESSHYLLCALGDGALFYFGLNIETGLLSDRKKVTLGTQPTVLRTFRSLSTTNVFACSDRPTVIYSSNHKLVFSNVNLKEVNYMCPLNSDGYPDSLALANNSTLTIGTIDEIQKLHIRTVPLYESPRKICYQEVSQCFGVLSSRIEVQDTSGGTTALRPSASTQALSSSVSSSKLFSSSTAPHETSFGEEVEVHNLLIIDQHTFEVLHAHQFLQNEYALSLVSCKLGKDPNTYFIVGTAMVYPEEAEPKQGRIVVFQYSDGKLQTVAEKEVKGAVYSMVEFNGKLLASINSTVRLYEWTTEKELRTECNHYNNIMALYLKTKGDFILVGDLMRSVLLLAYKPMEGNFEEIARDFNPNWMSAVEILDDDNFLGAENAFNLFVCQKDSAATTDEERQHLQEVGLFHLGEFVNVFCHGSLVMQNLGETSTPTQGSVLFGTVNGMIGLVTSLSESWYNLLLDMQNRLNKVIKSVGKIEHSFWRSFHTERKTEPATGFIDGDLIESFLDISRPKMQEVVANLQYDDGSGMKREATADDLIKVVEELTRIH

Cc1sc2c(c1C)C(c1ccc(Cl)cc1)=N[C@@H](CC(=O)NCCOCCOCCCc1cccc3c1n(C)c(=O)n3C1CCC(=O)NC1=O)c1nnc(C)n1-2 (stereo partly drawn) [Compound I-36, 2-((S)-4-(4-chlorophenyl)-2,3,9-trimethyl-6H-thieno[3,2-f][1,2,4]triazolo[4,3-a][1,4]diazepin-6-yl)-N-(2-(2-(3-(1-(2,6-dioxopiperidin-3-yl)-3-methyl-2-oxo-2,3-dihydro-1H-benzo[d]imidazol-4-yl)propoxy)ethoxy)ethyl)acetamide]
% BRD4 degradation ([1]; 0.0003 uM): C (40 to 60 percent protein degradation) | % BRD4 degradation ([1]; 0.001 uM): C (40 to 60 percent protein degradation) | % BRD4 degradation ([1]; 0.003 uM): C (40 to 60 percent protein degradation) | % BRD4 degradation ([1]; 0.01 uM): C (40 to 60 percent protein degradation) | % BRD4 degradation ([1]; 0.03 uM): B (60 to 80 percent protein degradation) | % BRD4 degradation ([1]; 0.1 uM): B (60 to 80 percent protein degradation) | % BRD4 degradation ([1]; 0.3 uM): B (60 to 80 percent protein degradation) | % BRD4 degradation ([1]; 1 uM): B (60 to 80 percent protein degradation)

Cc1sc2c(c1C)C(c1ccc(Cl)cc1)=N[C@@H](CC(=O)NCCOCCOCCOCCn1c(=O)n(C3CCC(=O)NC3=O)c3ccccc31)c1nnc(C)n1-2 (stereo partly drawn) [Compound I-37, 2-((S)-4-(4-Chlorophenyl)-2,3,9-trimethyl-6H-thieno[3,2-f][1,2,4]triazolo[4,3-a][1,4]diazepin-6-yl)-N-(2-(2-(2-(2-(3-(2,6-dioxopiperidin-3-yl)-2-oxo-2,3-dihydro-1H-benzo[d]imidazol-1-yl)ethoxy)ethoxy)ethoxy)ethyl)acetamide]
% BRD4 degradation ([1]; 0.0003 uM): B (60 to 80 percent protein degradation) | % BRD4 degradation ([1]; 0.001 uM): B (60 to 80 percent protein degradation) | % BRD4 degradation ([1]; 0.003 uM): A (greater than 80 percent protein degradation) | % BRD4 degradation ([1]; 0.01 uM): A (greater than 80 percent protein degradation) | % BRD4 degradation ([1]; 0.03 uM): A (greater than 80 percent protein degradation) | % BRD4 degradation ([1]; 0.1 uM): A (greater than 80 percent protein degradation) | % BRD4 degradation ([1]; 0.3 uM): A (greater than 80 percent protein degradation) | % BRD4 degradation ([1]; 1 uM): A (greater than 80 percent protein degradation)

O=C1CCC(N2C(=O)Cc3ccccc32)C(=O)N1 (stereo not drawn) [Compound 3, 3-(2-Oxo-2,3-dihydro-1H-indol-1-yl)piperidine-2,6-dione]
IC50 [2]: > 100 µM

Cc1sc2c(c1C)C(c1ccc(Cl)cc1)=N[C@@H](CC(=O)NCCOCCOCCn1c(=O)n(C3CCC(=O)NC3=O)c3ccccc31)c1nnc(C)n1-2 (stereo partly drawn) [Compound I-38, 2-((S)-4-(4-chlorophenyl)-2,3,9-trimethyl-6H-thieno[3,2-f][1,2,4]triazolo[4,3-a][1,4]diazepin-6-yl)-N-(2-(2-(2-(3-(2,6-dioxopiperidin-3-yl)-2-oxo-2,3-dihydro-1H-benzo[d]imidazol-1-yl)ethoxy)ethoxy)ethyl)acetamide]
% BRD4 degradation ([1]; 0.0003 uM): D (less than 40 percent protein degradation) | % BRD4 degradation ([1]; 0.001 uM): B (60 to 80 percent protein degradation) | % BRD4 degradation ([1]; 0.003 uM): A (greater than 80 percent protein degradation) | % BRD4 degradation ([1]; 0.01 uM): A (greater than 80 percent protein degradation) | % BRD4 degradation ([1]; 0.03 uM): A (greater than 80 percent protein degradation) | % BRD4 degradation ([1]; 0.1 uM): A (greater than 80 percent protein degradation) | % BRD4 degradation ([1]; 0.3 uM): A (greater than 80 percent protein degradation) | % BRD4 degradation ([1]; 1 uM): A (greater than 80 percent protein degradation)

Cc1sc2c(c1C)C(c1ccc(Cl)cc1)=N[C@@H](CC(=O)NCCOCCOCCCc1ccc3c(c1)n(C)c(=O)n3C1CCC(=O)NC1=O)c1nnc(C)n1-2 (stereo partly drawn) [Compound I-35, 2-((S)-4-(4-chlorophenyl)-2,3,9-trimethyl-6H-thieno[3,2-f][1,2,4]triazolo[4,3-a][1,4]diazepin-6-yl)-N-(2-(2-(3-(1-(2,6-dioxopiperidin-3-yl)-3-methyl-2-oxo-2,3-dihydro-1H-benzo[d]imidazol-5-yl)propoxy)ethoxy)ethyl)acetamide]
% BRD4 degradation ([1]; 0.0003 uM): B (60 to 80 percent protein degradation) | % BRD4 degradation ([1]; 0.001 uM): A (greater than 80 percent protein degradation) | % BRD4 degradation ([1]; 0.003 uM): A (greater than 80 percent protein degradation) | % BRD4 degradation ([1]; 0.01 uM): A (greater than 80 percent protein degradation) | % BRD4 degradation ([1]; 0.03 uM): A (greater than 80 percent protein degradation) | % BRD4 degradation ([1]; 0.1 uM): A (greater than 80 percent protein degradation) | % BRD4 degradation ([1]; 0.3 uM): A (greater than 80 percent protein degradation) | % BRD4 degradation ([1]; 1 uM): A (greater than 80 percent protein degradation)
